The record followed here is patent publication US7943664B2, “Phosphate binding materials and their uses” (Medical Research Council, priority 2008, dated 2011).

Assay [1] can be described thus: In vitro phosphate binding at physiological concentration. In kind it is physicochemical. How it is done: An exemplary assay for determining phosphate binding is reported in the example 2.1 in which equal masses of ferrihydrite (e.g. 53.6 mg), or indeed any other binder used as a comparison, and a phosphate binder of the present invention were assayed to determine the percentage of phosphate they are capable of binding under physiological conditions. In general, the mass of the materials used in the assay may be between 10 mg and 80 mg inclusive in a 20 mL assay. […]
A solution containing 10 mM phosphate, a physiologically relevant concentration, and 0.9% NaCl was adjusted to pH 3, pH 5 and finally pH 7. […] The percentage of phosphate binding was calculated according to: Phosphate binding=(1−([P]t0−[P]ti)/[P]ti)×100 […]
Iron and phosphorus contents of solutions or solids (including wet solids) were measured using a JY2000-2 ICPOES (Horiba Jobin Yvon Ltd., Stanmore, U.K.) at the iron specific wavelength of 259.940 nm, and at the phosphorus wavelengths of 177.440 and/or 214.914 nm. […] The percentage of iron in solution or solid phase was determined by the difference between the starting iron content and either the iron in the soluble phase or the iron in the solid phase depending on the assay. […]

Assay [2] in a line: Langmuir isotherms, determination of affinity and capacity. The assay is classed as physicochemical. To be noted: Langmuir isotherm at pH 5, 10 mM phosphate, 0.9% NaCl, binder mass 13.4-80.4 mg. How it is done:
The Langmuir isotherms were obtained using the same methodology as in Autissier et al. (2007), except in vitro solutions also contained 0.9% NaCl to make the assay better simulate physiological conditions. These Langmuir isotherms were generated at pH 5 and experimental conditions were similar to those in “Phosphate binding at physiological concentration” except the mass of binders was varied from 13.4-80.4 mg.
We further compared the phosphate binding abilities of FeOH Ad100, FeOH Ad100 SiO2, and lanthanum using Langmuir isotherms. The Langmuir equation relates the adsorption of molecules on a solid surface to a concentration and was adapted to determine the affinity and capacity of the above noted phosphate binders:
C=concentration of adsorbate unbound in mM
Cad/m=mmol of adsorbate bound per g binder
It was not possible to determine these values for Renagel because its low affinity required a higher concentration of phosphate than the physiologically relevant concentration (10 mM) that was tested in this experiment. Langmuir isotherms were generated at pH 5 and experimental conditions were similar to those in FIGS. 2a/b, except the mass of binders was varied from 13.4-80.4 mg.

Molecules are shown by their SMILES.

On to `O=C([O-])[O-].O=C([O-])[O-].O=C([O-])[O-].[La+3].[La+3]` [Lanthanum Carbonate, Lanthanum carbonate], for which the phosphate binding in assay [1] (20 mL 10 mM phosphate, 0.9% NaCl, 54 mg (53.6 mg) binder, pH 3 for 60 min then pH 5 for 60 min, sequentially (FIG. 2a/b)) is recorded as 70-85%; in assay [1] (binder exposed directly to the solution at pH 5 for 1 hour, without pre-conditioning at pH 3 (FIG. 3)) it was “≈ 30%”. Also, the “K1 (Affinity)” value in assay [2] is 1.6. Moreover, the “K2 (Capacity)” value in assay [2] (unit printed for K2, not in the table) was 1.0 mmol P/g binder.
